According to patent publication US10787436B2, “Inhibitors of cyclin-dependent kinase 7 (CDK7)” (Dana-Farber Cancer Institute, Inc., priority 2012, dated 2020):
Like-named read-outs stand apart in the source and are kept apart here.

What was measured:
[1] = test system: panel of >300 diverse cancer cell lines; assay: Cancer cell line panel profiling, alamarBlue, 72 hours; format: cell-based, human
Protocol: At indicated time points, cellular lysates were harvested at the indicated times points and immunoblotted for the indicated proteins. […] Anti-proliferative effects were determined using cell titer glo analysis. […] Anti-proliferative effects were determined using alamarBlue® analysis. […] Anti-proliferative effects were determined using cell titer glo analysis. […] Dose: i.v. 1 mg/kg and p.o. 10 mg/kg.
(§1) Proliferation assays were conducted over a 48-72 hour time period (as noted). […] Cancer cell line profiling was performed over a 72 time period using Alamar Blue reagent.
CDK7 inhibitors display strong antiproflierative effects in leukemia and lymphoma cancer cells. However, a better definition of the breadth of their therapeutic potential in other cell types has not been reported. […] The rationale for examining such a large panel of human cancer cell lines is based on the fact that there is substantial genetic heterogeneity among human tumor cells, even with the same histological origins. In general, the data reveal a bimodal distribution with cell lines displaying exquisite sensitivity or apparent complete insensitivity to the compound.

T47D = assay: Proliferation assay, CellTiter-Glo, 72 hour; format: cell-based; details: breast cancer cell line, read-out: Inhibition of proliferation, T47D
MNNG-HOS Cl#5 = assay: Proliferation assay, CellTiter-Glo, 72 hour; format: cell-based; details: osteosarcoma cell line, read-out: Inhibition of proliferation, MNNG-HOS Cl#5
RS4-11 = assay: Proliferation assay, CellTiter-Glo, 72 hour; format: cell-based; details: blood cancer cell line, read-out: Inhibition of proliferation, RS4-11
MCF10A = assay: Proliferation assay, CellTiter-Glo, 72 hour; format: cell-based; details: non-tumorigenic breast epithelial cell line, read-out: Inhibition of proliferation, MCF10A
JNK2 (MAPK9) = JNK2 (MAPK9) (Homo sapiens (Human), UniProt P45984); assay: Life Technologies Z'-Lyte kinase assay, JNK2; format: biochemical
Hs822T = assay: Proliferation assay, CellTiter-Glo, 72 hour; format: cell-based; details: Ewing's sarcoma cell line, read-out: Inhibition of proliferation, Hs822T
SKBR3 = assay: Proliferation assay, CellTiter-Glo, 72 hour; format: cell-based; details: breast cancer cell line, read-out: Inhibition of proliferation, SKBR3
THP-1 = assay: Proliferation assay, CellTiter-Glo, 72 hour; format: cell-based; details: blood cancer cell line, read-out: Inhibition of proliferation, THP-1
HL60 = assay: Proliferation assay, CellTiter-Glo, 72 hour; format: cell-based; details: blood cancer cell line, read-out: Inhibition of proliferation, HL60
SAOS = assay: Proliferation assay, CellTiter-Glo, 72 hour; format: cell-based; details: osteosarcoma cell line, read-out: Inhibition of proliferation, SAOS
RNAP II occupancy = assay: RNAP II ChIP-seq in Jurkat cells; format: cell-based, human; details: 250 nM for 6 hours
Protocol: After the indicated treatment time, cells were crosslinked for 10 minutes at room temperature by the addition of one-tenth of the volume of 11% formaldehyde solution (11% formaldehyde, 50 mM Hepes (pH 7.3), 100 mM NaCl, 1 mM EDTA (pH 8.0), 0.5 mM EGTA (pH 8.0)) to the growth media followed by two washes with PBS. Following the final PBS wash, supernatant was aspirated, and the cell pellet was flash frozen in liquid nitrogen. Frozen crosslinked cells were stored at −80° C.
50 μl of Dynal magnetic beads (Sigma) were blocked with 0.5% BSA (w/v) in PBS. Magnetic beads were bound with 5 μg of the indicated antibody. Antibodies used are as follows: Total RNAP II (Rpb1 N-terminus): Santa Cruz sc-899; CDK7: Bethyl A300-405A. Crosslinked cells were lysed with lysis buffer 1 (50 mM Hepes (pH 7.3), 140 mM NaCl, 1 mM EDTA, 10% glycerol, 0.5% NP-40, and 0.25% Triton X-100) and washed with lysis buffer 2 (10 mM Tris-HCl (pH 8.0), 200 mM NaCl, 1 mM EDTA (pH 8.0) and 0.5 mM EGTA (pH 8.0)). […]
Illumina sequencing libraries were generated, and data were processed according to Lin et al., Cell (2012) 151:56-67. […] These criteria preserved only reads that mapped uniquely to the genome with 1 or fewer mismatches. […]

[2] = test system: multiple myeloma cell lines; assay: Anti-proliferative effect in multiple myeloma cell lines with or without stromal cells, cell titer glo, 48-hour; format: cell-based; details: 48-hour treatment
Protocol: Clinical isolates of CLL were cultured with compounds of Formula (I) or flavopiridol and assessed for cell death after a 24 hour time course by Annexin V staining. […] Anti-proliferative effect was measured using cell titer glo analysis.
as §1

Sequence of JNK2 (MAPK9) (P45984 whole entry): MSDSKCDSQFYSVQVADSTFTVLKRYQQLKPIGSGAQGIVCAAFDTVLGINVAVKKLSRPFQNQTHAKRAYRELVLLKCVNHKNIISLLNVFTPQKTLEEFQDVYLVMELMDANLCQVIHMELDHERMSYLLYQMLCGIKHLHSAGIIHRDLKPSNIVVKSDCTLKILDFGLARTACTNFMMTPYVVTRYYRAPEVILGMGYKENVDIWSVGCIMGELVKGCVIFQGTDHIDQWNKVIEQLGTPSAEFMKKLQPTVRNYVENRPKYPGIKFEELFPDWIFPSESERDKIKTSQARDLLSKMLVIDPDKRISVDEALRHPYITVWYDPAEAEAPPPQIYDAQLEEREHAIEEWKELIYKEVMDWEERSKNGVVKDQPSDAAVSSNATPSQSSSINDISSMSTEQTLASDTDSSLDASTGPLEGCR

CN(C)C/C=C/C(=O)Nc1ccc(C(=O)Nc2cccc(Nc3ncc(Cl)c(-c4c[nH]c5ccccc45)n3)c2)cc1 [Formula I-23]
IC50 ([1]; panel of >300 cancer cell lines, read-out: IC50 values in 24% of cell lines): > 2500 nM | IC50 ([1]; read-out: IC50s in 94% (132/140) of leukemia cell lines): < 200 nM | IC50 ([1]; read-out: IC50s in all (48/48) lymphoma cell lines): < 150 nM | IC50 ([1]; read-out: IC50 values in 70% of cell lines, panel of >300 cancer cell lines): < 200 nM | IC50 (T47D): > 5000 nM | IC50 (MNNG-HOS Cl#5): 500 to 5000 nM | IC50 (RS4-11): < 500 nM | IC50 (MCF10A): < 500 nM | IC50 (JNK2 (MAPK9); read-out: Calculated IC50, JNK2 (MAPK9)): 100 to 1000 nM | Percent inhibition, JNK2 ^b (JNK2 (MAPK9); superscript b (footnote not given; tested at 100 nM and 1 μM)): C (less than 50% inhibition) | IC50 (Hs822T): < 500 nM | IC50 (SKBR3): 500 to 5000 nM | IC50 (THP-1): < 500 nM | IC50 (HL60): < 500 nM | IC50 (SAOS): < 500 nM | RNAP II occupancy at the promoter proximal pause site (RNAP II occupancy): drastically diminished | Anti-proliferative activity in MM cell lines [2]: highly effective anti-proliferative activity
